Source: publication PMC11868579 (Nature Communications, 2024)

Experiments:
H1299 cells = test: CellTiter-Blue cell viability, H1299; format: cell-based, human; conditions: for Cell viability by cell titre blue assay, Average: H1299, 4 days, n=3
Experimental: Cell viability was measured by CellTiter-Blue® Cell Viability Assay. Cells were seeded in 96 well plates (Corning, cat#353072) and left overnight. Compounds were added at a range of concentrations and plates incubated at 37 °C for 96 hr. Cell titre blue reagent (Promega, Hampshire, UK, cat# G8081) was added (5 μl/well) and incubated for a further 2 h at 37 °C. Fluorescence (579Ex/584Em) was measured using a PHERAstar plate reader.

MCL1 protein expression = test: Immunoblot of MCL1 in eIF4E-dTAG clones and rescue models; format: cell-based, human; conditions: for Quantification of MCL1 immunoblot signals using Image J, Average: Cont = 100; for Quantification of MCL1 (6hr) immunoblot signal using Image J, Average: 0.5 μM, control = 100
Experimental: One sample t and Wilcoxon tests (two-sided), using 100% as hypothetical control value, were performed and compared with the control in each cell line. b, c Real-time cell growth measurements monitored every 4 h over a 6-day period. Cell confluency (%) was calculated using Incucyte Zoom software and (mean ± SEM n = 3 biological replicates). Ordinary one-way ANOVA with Tukey multiple comparisons test compared treatment with the control in each cell line. […] Vinculin was used as loading control. H1299 (PAR) cell lines were treated with 1 μM dTAG^V-1 only as qualitative control. Vinculin was used as loading control. […] Significant p-values (< 0.05) are shown on the plots and the source data is located in the Source Data file.
After seeding overnight in 6 well plates (Corning, cat#353046), cells were treated with compounds for the indicated times and concentration, harvested and the cell pellet lysed on ice in cell lysis buffer (Cell Signaling, cat#9803), supplemented with 1x Halt^TM protease inhibitor cocktail (Fisher Scientific, cat#78429) and cOmplete^TM protease inhibitor cocktail (Sigma-Aldrich, cat#11836153001) for 1 hr. Protein was quantified using BCA protein kit (Fisher Scientific, cat#23225). Western blot was performed using NuPAGE^TM 4–12% Bis-Tris gels (Fisher Scientific, cat#NP0336BOX) and transferred using the Invitrogen iBLOT^TM gel transfer device system (Fisher Scientific, Cat#IB21001). […] All primary antibodies were diluted (1:1000) in 5% BSA (Sigma-Aldrich, cat#A7906) in 1x TBS and 0.1% Tween 20 (Sigma-Aldrich, cat#P1379), except for vinculin (1:2000) that was diluted in casein blocker (Sigma-Aldrich, cat#1610782). This was followed by incubation with the secondary HRP-conjugated antibodies (anti-mouse HRP, Bio-rad, Watford, UK, cat#1705047; anti-rabbit HRP, Sigma-Aldrich, cat#NA934) in casein for 1 h at RT. ECL HRP substrate (SuperSignalTM West Pico, Fisher Scientific, cat#34578) was then added to detect protein targets by chemiluminescence and images acquired using the ChemiDocTM system (Bio-Rad). Quantitative densitometry analysis of protein bands was performed using Image J v1.53 software.

eIF4G binding to eIF4E = biological target: T1, eIF4G binding to eIF4E (Homo sapiens, UniProt P06730); test: Co-immunoprecipitation with eIF4E antibody, immunoblot for eIF4G, SW620 lysates; format: biochemical; conditions: 1–100 µM, 30 min
T1 construct: endogenous in cells; host or cells: SW620 cells (lysates)
Experimental: Cells were harvested by trypsinisation and washed with PBS before lysis in MSD lysis buffer (150 mM NaCl, 20 mM Tris pH 7.5, 1 mM EDTA, 1 mM EGTA, 1% Triton X-100) containing protease inhibitors (Roche, complete mini tablet, cat# 11836153001) and phosphatase inhibitors (50 mM NaF and 100 mM Na3VO4). Lysate was placed on ice for 30 min and then cleared in a microfuge at 17,000 x g for 10 min at 4 °C. The protein concentration of the cleared lysate was determined by BCA assay (Pierce) and adjusted to 4 mg/ml with lysis buffer. […] 100 μl of lysate and 100 μl of beads were then incubated with shaking overnight at 4 °C. Samples were then washed 3x with 1 ml PBS, resuspended in 100 μl PBS and boiled for 10 min with 1x SDS-PAGE sample buffer containing 10 μl 1 mM DTT.
After seeding overnight in 6 well plates (Corning, cat#353046), cells were treated with compounds for the indicated times and concentration, harvested and the cell pellet lysed on ice in cell lysis buffer (Cell Signaling, cat#9803), supplemented with 1x Halt^TM protease inhibitor cocktail (Fisher Scientific, cat#78429) and cOmplete^TM protease inhibitor cocktail (Sigma-Aldrich, cat#11836153001) for 1 hr. Protein was quantified using BCA protein kit (Fisher Scientific, cat#23225). […] Quantitative densitometry analysis of protein bands was performed using Image J v1.53 software.

[1] = tested on: cap-dependent translation; test: HeLa in vitro translation assay, cap-dependent reporter; format: biochemical, human; conditions: for fLuc (CAP) luminescence normalized to DMSO control, Average: HeLa lysate IVT, n=3
Experimental: HeLa In vitro translation (IVT) assay kits were purchased from Thermo Fisher(cat#88882). Bicistronic reporter mRNA was prepared from using a CMV/T7-renilla luciferase-IRES(FDMV)-firefly luciferase reporter vector as template DNA (supplied by Oxford Genetics Ltd.) using Message Machine T7 Ultra transcription Kit (Thermo Fisher, cat# AM1345) to generate in vitro transcribed mRNA. DNA template was removed with Turbo DNase from the transcription kit and the mRNA purified using RNeasy columns (Qiagen, cat#74204). RNA concentration was adjusted to 1 µg/µl using a Nanodrop. In vitro translation assays were then set up using a HeLa IVT kit according to the manufacturer’s protocol. The reaction was analysed using Dual Glo luciferase reporter assays (Promega, cat#E2920). Compounds were diluted from 100x DMSO stocks 1:10 in PBS and 2.5 µl transferred to 96 well PCR plates (Starlab, cat#I1402-9700). 22.5 µl IVT reaction mix (1.5 mL HeLa lysate, 60 µl RNAsin (Promega, cat#N2115), 300 µl accessory proteins, 600 µl reaction buffer, 200 µl nuclease free water and 30 µl […] mRNA) was added and incubated for 30 min at 30 °C (PCR alphacycler 4, PCRmax, Stone, Staffordshire, UK). The samples were placed on ice for 10 min, then 10 µl was removed and transferred to a white 96 well assay plate (Corning, cat#3917). […]

[2] = tested on: H1299 eIF4E-dTAG clones (C2-2, C3-1, N2-1, N3-2) and C3-1 rescue models; test: IncuCyte real-time cell growth of eIF4E-dTAG clones and rescue models; format: cell-based, human; conditions: for proliferation on co-treatment: 25 μM with dTAG^V-1
Experimental: Real time monitoring of cell growth was performed with the IncuCyte ZOOM live cell imaging system (Essen BioSciences, USA). Cells were seeded in 96 well plates (Corning, cat#353072) and treated on the next day. The resulting phase-contrast images were analysed using IncuCyte ZOOM 2018A software and results were expressed as percentage confluency of cells.

[3] = 25 μM, absence of dTAG^V-1, C3-1, W73F and L85R models

T1 sequence (P06730 2-217 limits assumed): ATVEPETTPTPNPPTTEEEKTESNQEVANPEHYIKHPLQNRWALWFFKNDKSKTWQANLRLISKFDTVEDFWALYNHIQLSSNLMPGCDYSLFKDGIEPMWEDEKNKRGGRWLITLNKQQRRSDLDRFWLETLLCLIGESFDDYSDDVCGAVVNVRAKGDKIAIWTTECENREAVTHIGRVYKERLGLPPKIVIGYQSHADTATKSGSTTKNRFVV

## CC[C@H](O[C@H](C)CO)c1ccc(-c2ccccc2F)cc1NCCO [Compound 4]
H1299 cells; H1299, 96 hr
  antiproliferative activity: lacked on-target antiproliferative activity
H1299 cells; 0.62 uM
  Cell viability by cell titre blue assay, Average: 93.752
H1299 cells; 1.85 uM
  Cell viability by cell titre blue assay, Average: 89.518
H1299 cells; 5.56 uM
  Cell viability by cell titre blue assay, Average: 87.397
H1299 cells; 16.67 uM
  Cell viability by cell titre blue assay, Average: 77.938
H1299 cells; 50 uM
  Cell viability by cell titre blue assay, Average: 33.702
MCL1 protein expression; 25 μM with dTAG^V-1, C3-1 or L85R rescue line
  MCL1 expression on co-treatment: no additional loss of proliferation or MCL1 expression
MCL1 protein expression; [3]
  effect on MCL1 biomarker: no effect on the MCL1 biomarker or proliferation
eIF4G binding to eIF4E
  effect on eIF4G binding to eIF4E (co-immunoprecipitation): disrupted eIF4G binding to eIF4E
[1]; 1 μM
  fLuc (CAP) luminescence normalized to DMSO control, Average: 79.4%
[1]; 10 μM
  fLuc (CAP) luminescence normalized to DMSO control, Average: 29.0%
[1]; 100 μM
  fLuc (CAP) luminescence normalized to DMSO control, Average: 23.9%
[2]; C3-1 or L85R rescue line
  proliferation on co-treatment: no additional loss of proliferation or MCL1 expression
[2]; W73F mutant model
  proliferation on co-treatment: significant combinatorial effect on proliferation
[2]; [3]
  effect on proliferation: no effect on the MCL1 biomarker or proliferation
[2]; compound 4 with neg-dTAG^V-1
  effects on cell growth, control combination: no significant effects
[2]; with dTAG^V-1, W73F mutant model
  sensitisation on co-treatment: ≈ 50%

## CC[C@H](C(=O)N1CCCC[C@H]1C(=O)O[C@H](CCc1ccc(OC)c(OC)c1)c1ccccc1OCC(=O)NCCCCCCC(=O)N[C@H](C(=O)N1C[C@H](O)C[C@H]1C(=O)N[C@@H](C)c1ccc(-c2scnc2C)cc1)C(C)(C)C)c1cc(OC)c(OC)c(OC)c1 [dTAG^V-1]
MCL1 protein expression; C3-1 + WT eIF4E, 0.5 uM, n=3
  Quantification of MCL1 immunoblot signals using Image J, Average: 116.17
MCL1 protein expression; C3-1 + WT eIF4E, 1 uM, n=3
  Quantification of MCL1 immunoblot signals using Image J, Average: 110.20
MCL1 protein expression; C3-1, n=3
  Quantification of MCL1 (6hr) immunoblot signal using Image J, Average: 44
MCL1 protein expression; C3-1, 0.5 uM, n=3
  Quantification of MCL1 immunoblot signals using Image J, Average: 39.67
MCL1 protein expression; C3-1, 1 uM, n=3
  Quantification of MCL1 immunoblot signals using Image J, Average: 38.77
MCL1 protein expression; L85R, 0.5 uM, n=3
  Quantification of MCL1 immunoblot signals using Image J, Average: 69.30
MCL1 protein expression; L85R, 1 uM, n=3
  Quantification of MCL1 immunoblot signals using Image J, Average: 57.73
MCL1 protein expression; L134R, 0.5 uM, n=3
  Quantification of MCL1 immunoblot signals using Image J, Average: 63.30
MCL1 protein expression; L134R, 1 uM, n=3
  Quantification of MCL1 immunoblot signals using Image J, Average: 50.60
MCL1 protein expression; S209A rescue, n=3
  Quantification of MCL1 (6hr) immunoblot signal using Image J, Average: 117
MCL1 protein expression; S209A, 0.5 uM, n=3
  Quantification of MCL1 immunoblot signals using Image J, Average: 104.13
MCL1 protein expression; S209A, 1 uM, n=3
  Quantification of MCL1 immunoblot signals using Image J, Average: 110.17
MCL1 protein expression; W56A rescue, n=3
  Quantification of MCL1 (6hr) immunoblot signal using Image J, Average: 49
MCL1 protein expression; W56A, 0.5 uM, two experiments
  Quantification of MCL1 immunoblot signals using Image J, Average: 55.95
MCL1 protein expression; W56A, 1 uM, n=3
  Quantification of MCL1 immunoblot signals using Image J, Average: 64.70
MCL1 protein expression; W73F/L85R, 0.5 uM, n=3
  Quantification of MCL1 immunoblot signals using Image J, Average: 57.83
MCL1 protein expression; W73F/L85R, 1 uM, n=3
  Quantification of MCL1 immunoblot signals using Image J, Average: 56.77
MCL1 protein expression; W73F, 0.5 uM, n=3
  Quantification of MCL1 immunoblot signals using Image J, Average: 92.60
MCL1 protein expression; W73F, 1 uM, n=3
  Quantification of MCL1 immunoblot signals using Image J, Average: 99.57
MCL1 protein expression; WT rescue, n=3
  Quantification of MCL1 (6hr) immunoblot signal using Image J, Average: 99
MCL1 protein expression; eIF4E-dTAG clones
  MCL1 protein after treatment: decrease in MCL1 protein
[2]; treatment for 6 days, 0.5 or 1 µM
  growth of eIF4E-dTAG clones: inhibited growth of all 4 clones

## CC[C@@H](O[C@H](C)CO)c1ccc(-c2ccccc2F)cc1NCCO [Compound 5]
H1299 cells; 0.62 uM
  Cell viability by cell titre blue assay, Average: 92.413
H1299 cells; 1.85 uM
  Cell viability by cell titre blue assay, Average: 89.367
H1299 cells; 5.56 uM
  Cell viability by cell titre blue assay, Average: 90.001
H1299 cells; 16.67 uM
  Cell viability by cell titre blue assay, Average: 80.933
H1299 cells; 50 uM
  Cell viability by cell titre blue assay, Average: 48.944
eIF4G binding to eIF4E
  effect on eIF4G binding to eIF4E (co-immunoprecipitation): limited effect
[1]; 1, 10, 100 µM
  effect on cap-dependent translation: no significant effect
[1]; 1 μM
  fLuc (CAP) luminescence normalized to DMSO control, Average: 115.8%
[1]; 10 μM
  fLuc (CAP) luminescence normalized to DMSO control, Average: 67.5%
[1]; 100 μM
  fLuc (CAP) luminescence normalized to DMSO control, Average: 84.6%
[2]; compound 5 with dTAG^V-1
  effects on cell growth, control combination: no significant effects
